Experiment [1] deals with T1, hNTS1 receptor (Homo sapiens, UniProt P30989).
T1 construct: membranes prepared from them
As to the kind of experiment: Competitive radioligand binding assay on the hNTS1 receptor. Conditions: displacement of 125I-[Tyr3]-NT, membranes of CHO-K1 cells expressing hNTS1; read-out: IC50 NTS1. As to the method:
(§1) CHO-K1 (Chinese Hamster Ovary) cells stably expressing hNTS1 and 1321N1 cells stably expressing hNTS2 (ES-690-C and ES-691-C from PerkinElmer, Montréal, Canada) were cultured respectively in Ham's F12 and in DMEM culture media. Culture media were supplemented with 10% FBS, 100 U/mL penicillin, 100 μg/mL streptomycin, 20 mM HEPES, and 0.4 mg/mL G418 at 37° C. in a humidified chamber at 5% CO2.
(§2) The cells expressing hNTS1 were frozen when they reached 80% confluency. They were scrapped off the dish with 10 mM Tris buffer, 1 mM EDTA, pH 7.5 and centrifuged at 15,000 g for 5 min at 4° C. The pellet was then re-suspended in 1 mL binding buffer. The cells expressing hNTS2 were also frozen when they reached 80% confluency. They were scraped off the dish with PBS, 0.5 mM EDTA, pH 7.5 and sonicated for 5 minutes (pulse 30 s/5 s off, amplitude 40%). They were ultracentrifuged at 100 000 g for 60 minutes at 4° C. The pellet was re-suspended in 1 mL freezing buffer (PBS, glycerol, 0.5 mM EDTA), sonicated for 1 minute (pulse 30 s/5 s off, amplitude 50%) and further diluted in binding buffer. Competitive radioligand binding experiments were performed by incubating 15 μg of cell membranes expressing the hNTS1 receptor with […] of ^125I-[Tyr^3]-NT (2200 Ci/mmol) or 50 μg of cell membranes expressing the hNTS2 receptor with […] of ^125I-[Tyr^3]-NT in binding buffer (50 mM Tris-HCl, pH 7.5, 0.2% BSA) in the presence of increasing concentrations of analogues ranging from 10^−11 to 10^−4 M for 60 min at 25° C. After incubation, the binding reaction mixture was transferred in PEI-coated 96-well filter plates (glass fiber filters GF/B, Millipore, Billerica, MA). Reaction was terminated by filtration, and plates were washed three times with 200 μL ice-cold binding buffer. Glass filters were then counted using a γ-counter (2470 Wizard2, PerkinElmer, Mississauga, Ontario, Canada). Non-specific binding was measured in the presence of 10^−5 M unlabeled NT (8-13) and represented less than 5% of total binding. IC50 values were determined from competition curves as the unlabeled ligand concentration inhibiting 50% of ^125I-[Tyr^3]-NT-specific binding.
(§3) Competitive radioligand binding data were plotted using the nonlinear regression One-site-Fit Log(IC50) and represented the mean±SEM of at least three independent experiments in triplicates.
On the technique in general: In a radioligand displacement assay an active substance lowers the binding of a labelled ligand.

In experiment [2] the target is T2, hNTS2 receptor (Homo sapiens, UniProt O95665).
T2 construct: membranes prepared from them
As to the kind of experiment: Competitive radioligand binding assay on the hNTS2 receptor. Particulars: for IC50: displacement of 125I-[Tyr3]-NT, membranes of 1321N1 cells expressing hNTS2, read-out: IC50 NTS2 (converted); for Selectivity: ratio IC50 for NTS1 : IC50 for NTS2. As to the method: as §1, §2, §3

*1 amine or outer side, *2 acyl side, *3 side chain or, on linkers, in order; H or OH if unused. Where a SMILES comes first, the peptide text is derived from it. Bridges are numbered along the chain shown (N, C = ends). [ ]: non-standard residue; d: D form. X1 = O=C(C1C[C@@H]2CCCC[C@@H]2N1[*:1])[*:2]; Bip = N[C@@H](Cc1ccc(-c2ccccc2)cc1)C(=O)O; Dip = N[C@H](C(=O)O)C(c1ccccc1)c1ccccc1; Phe(3-I) = N[C@@H](Cc1cccc(I)c1)C(=O)O; Cha = N[C@@H](CC1CCCCC1)C(=O)O; Cit = NC(=O)NCCC[C@H](N)C(=O)O; AllylGly = C=CC[C@H](N)C(=O)O; Aic = NC1(C(=O)O)Cc2ccccc2C1; Pen = CC(C)(S)[C@H](N)C(=O)O; hLys = NCCCCC[C@H](N)C(=O)O; Nle = CCCC[C@H](N)C(=O)O; Orn = NCCC[C@H](N)C(=O)O; Dap = NC[C@H](N)C(=O)O

What is called IC50 is the midpoint of a concentration-inhibition curve.

T2 sequence (O95665 whole entry): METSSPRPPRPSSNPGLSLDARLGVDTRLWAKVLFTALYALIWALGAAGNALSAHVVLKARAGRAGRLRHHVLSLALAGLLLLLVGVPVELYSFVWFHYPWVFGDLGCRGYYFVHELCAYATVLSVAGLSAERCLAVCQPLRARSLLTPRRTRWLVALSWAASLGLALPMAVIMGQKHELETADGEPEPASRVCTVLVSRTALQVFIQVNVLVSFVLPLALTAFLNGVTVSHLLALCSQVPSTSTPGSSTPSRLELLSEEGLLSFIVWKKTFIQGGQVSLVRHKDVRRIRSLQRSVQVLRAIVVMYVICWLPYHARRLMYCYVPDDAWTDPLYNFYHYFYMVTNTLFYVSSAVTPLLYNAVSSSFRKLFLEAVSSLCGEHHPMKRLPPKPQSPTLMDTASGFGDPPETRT
T1 sequence (P30989 whole entry): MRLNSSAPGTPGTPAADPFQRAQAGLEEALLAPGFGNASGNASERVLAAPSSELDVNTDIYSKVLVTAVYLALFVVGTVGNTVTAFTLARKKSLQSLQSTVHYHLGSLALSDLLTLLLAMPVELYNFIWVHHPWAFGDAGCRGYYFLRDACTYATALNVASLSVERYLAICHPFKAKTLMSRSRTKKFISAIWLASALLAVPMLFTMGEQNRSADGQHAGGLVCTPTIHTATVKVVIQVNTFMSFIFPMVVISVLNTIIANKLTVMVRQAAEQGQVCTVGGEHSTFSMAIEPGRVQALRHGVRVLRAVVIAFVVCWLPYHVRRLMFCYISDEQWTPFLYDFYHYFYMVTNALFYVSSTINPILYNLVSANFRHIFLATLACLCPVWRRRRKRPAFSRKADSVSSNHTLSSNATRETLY

As to `CCCC[C@@H]1NC(=O)[C@@H](N)CC=CC[C@@H](C(=O)N[C@@H](Cc2ccc(O)cc2)C(=O)N[C@@H](CC(C)C)C(=O)O)NC(=O)[C@H](CCCCN)NC1=O` [compound 85, c[G(All)NleKG(All)]YL] (H-[AllylGly][Nle]K[AllylGly]YL-OH; staple 1-4), the results for the IC50 in experiment [1] and in experiment [2] were greater than 100 µM and 1.07 µM, respectively. Also, in experiment [2], the Selectivity was greater than 93.
In the same order, the values of `NCCCC[C@@H]1NC(=O)[C@H](CCCCN)NC(=O)[C@@H](N)CC=CC[C@@H](C(=O)N[C@@H](Cc2ccc(O)cc2)C(=O)N[C@@H](CC2CCCCC2)C(=O)O)NC1=O` [compound 31, c[G(All)KKG(All)]YA(Ch)] (H-[AllylGly]KK[AllylGly]Y[Cha]-OH; staple 1-4) are greater than 100 µM, 0.00867 µM and greater than 11534.
In the same order, the values of `CC(C)C[C@H](NC(=O)[C@@H](Cc1c[nH]c2ccccc12)NC(=O)[C@@H]1CC=CC[C@H](N)C(=O)N[C@@H](CCCCN)C(=O)N[C@@H](CCCCN)C(=O)N1)C(=O)O` [compound 43, c[G(All)KKG(All)]W*L] (H-[AllylGly]KK[AllylGly][dW]L-OH; staple 1-4) are greater than 100 µM, 0.968 µM and greater than 103.3.
In the same order, the values of `CC(C)C[C@H](NC(=O)[C@H](Cc1ccc(O)cc1)NC(=O)[C@@H]1CNC(=O)C[C@H](N)C(=O)N[C@@H](CCCCN)C(=O)N[C@@H](CCCCN)C(=O)N1)C(=O)O` [compound 103, c[DKKDap]YL] (H-DKK[Dap]YL-OH; lactam 1-4) are greater than 100 µM, 9.1 µM and greater than 11.0.
Regarding `CC(C)C[C@H](NC(=O)[C@H](Cc1ccc(O)cc1)NC(=O)[C@@H]1CC=CC[C@H](N)C(=O)N[C@@H](CCCNC(N)=O)C(=O)N[C@@H](CCCCN)C(=O)N1)C(=O)O` [compound 147, c[G(All)citrullineKG(All)]YL] (H-[AllylGly][Cit]K[AllylGly]YL-OH; staple 1-4), the IC50 in experiment [1] was greater than 100 µM; in experiment [2] it was 0.6 µM. The Selectivity in experiment [2] came to 167.
On the same counts, the results for `CC(C)C[C@H](NC(=O)[C@H](Cc1ccc(O)cc1)NC(=O)[C@@H]1CCCC[C@H](N)C(=O)N[C@@H](CCCCN)C(=O)N[C@@H](CCCCN)C(=O)N1)C(=O)O` [compound 47, Dihydro-c[G(All)KKG(All)]YL] are greater than 100 µM, 0.094 µM and greater than 1064.
On the same counts, the results for `CC(C)C[C@H](NC(=O)[C@H](Cc1cccc(I)c1)NC(=O)[C@@H]1CC=CC[C@H](N)C(=O)N[C@@H](CCCCN)C(=O)N[C@@H](CCCCN)C(=O)N1)C(=O)O` [compound 117, c[G(All)KKG(All)]F(3-iodo)L] (H-[AllylGly]KK[AllylGly][Phe(3-I)]L-OH; staple 1-4) are greater than 100 µM, 0.0323 µM and greater than 3097.
On the same counts, the results for `CC1(C(=O)N[C@@H](Cc2ccc(Br)cc2)C(=O)N[C@@H](CC2CCCC2)C(=O)O)CCCC=CCCC(=O)N[C@@H](CCCCN)C(=O)N[C@@H](CCCCN)C(=O)N1` (stereo partly drawn) [compound 137, c[K(Pentenoyl)KG(alpha-Me-(4-pentenyl))]F(4-bromo)A (cyclopentyl)] are greater than 100 µM, 0.0096 µM and 10428.
For `CC(C)C[C@H](NC(=O)[C@H](Cc1ccc(O)cc1)NC(=O)[C@H]1NC(=O)[C@H](CCCCN)NC(=O)[C@H](CCCCN)NC(=O)[C@@H](N)C(C)(C)SSC1(C)C)C(=O)O` [compound 155, c[(Pen)KK(Pen)]YL] (H-[Pen]KK[Pen]YL-OH; disulfide 1-4), the concentration for half-maximal inhibition (IC50) in experiment [1] is greater than 100 µM; in experiment [2], 0.318 µM. In addition, the Selectivity in experiment [2] is given as 315.
On the same counts, the results for `CC(C)C[C@H](NC(=O)C1(NC(=O)[C@@H]2CC=CC[C@H](N)C(=O)N[C@@H](CCCCN)C(=O)N[C@@H](CCCCN)C(=O)N2)Cc2ccccc2C1)C(=O)O` [compound 164, c[G(All)KKG(All)]G(indanyl)L] (H-[AllylGly]KK[AllylGly][Aic]L-OH; staple 1-4) are greater than 100 µM, 10 µM and 10.
Take `CC(C)[C@H](NC(=O)[C@H](Cc1ccc(O)cc1)NC(=O)[C@@H]1CC=CC[C@H](N)C(=O)N[C@@H](CCCCN)C(=O)N[C@@H](CCCCN)C(=O)N1)C(=O)O` [compound 33, c[G(All)KKG(All)]YV] (H-[AllylGly]KK[AllylGly]YV-OH; staple 1-4): the figures for the half-maximal inhibitory concentration (IC50) in experiment [1] and in experiment [2] were greater than 100 µM and 79.8 µM, respectively. The Selectivity in experiment [2] is on record as greater than 1.25.
In the case of `CC(C)C[C@H](NC(=O)[C@H](Cc1ccccc1)NC(=O)[C@@H]1CC=CC[C@H](N)C(=O)N[C@@H](CCCCN)C(=O)N[C@@H](CCCCN)C(=O)N1)C(=O)O` [compound 76, c[G(All)KKG(All)FL] (H-[AllylGly]KK[AllylGly]FL-OH; staple 1-4), the values for the half-inhibitory concentration (IC50) in experiment [1] and in experiment [2] were greater than 100 µM and 0.0851 µM, respectively. Also, the Selectivity in experiment [2] is reported as greater than 1175.
In the same order, the values of `CCCC[C@H](NC(=O)[C@H](Cc1ccc(O)cc1)NC(=O)[C@@H]1CC=CC[C@H](N)C(=O)N[C@@H](CCCCN)C(=O)N[C@@H](CCCCN)C(=O)N1)C(=O)O` [compound 28, c[G(All)KKG(All)]YNle] (H-[AllylGly]KK[AllylGly]Y[Nle]-OH; staple 1-4) are greater than 100 µM, 0.381 µM and greater than 262.
For `CC(C)C[C@H](NC(=O)[C@H](Cc1ccc(O)cc1)NC(=O)[C@@H]1CCC(=O)NCCC[C@H](N)C(=O)N[C@@H](CCCCN)C(=O)N[C@@H](CCCCN)C(=O)N1)C(=O)O` [compound 100, c[OrnKKE]YL] (H-[Orn]KKEYL-OH; lactam 1-4), in experiment [1], the half-inhibitory concentration (IC50) is greater than 100 µM. Moreover, in experiment [2], the IC50 was 4.5 µM and the Selectivity is listed as greater than 22.
In the same order, the values of `CC(C)C[C@H](NC(=O)[C@H](Cc1ccc(-c2ccccc2)cc1)NC(=O)[C@@H]1CC=CC[C@H](N)C(=O)N[C@@H](CCCCN)C(=O)N[C@@H](CCCCN)C(=O)N1)C(=O)O` [compound 139, c[G(All)KKG(All)]A (biphenyl)L] (H-[AllylGly]KK[AllylGly][Bip]L-OH; staple 1-4) are greater than 100 µM, 0.0485 µM and 2061.
On the same counts, the results for `CC(C)C[C@H](NC(=O)[C@H](Cc1ccc(O)cc1)NC(=O)[C@@H]1CC=CC[C@H](N)C(=O)N[C@@H](CCCCCN)C(=O)N[C@@H](CCCCN)C(=O)N1)C(=O)O` [compound 150, c[G(All)homolysineKG(All)]YL] (H-[AllylGly][hLys]K[AllylGly]YL-OH; staple 1-4) are greater than 100 µM, 0.187 µM and 533.
On the same counts, the results for `CC(C)C[C@H](NC(=O)[C@H](Cc1ccc(O)cc1)NC(=O)[C@@H]1CC=CC[C@H](N)C(=O)NCC(=O)N[C@@H](CCCCN)C(=O)N1)C(=O)O` [compound 87, c[G(All)GKG(All)]YL] (H-[AllylGly]GK[AllylGly]YL-OH; staple 1-4) are greater than 100 µM, 0.516 µM and greater than 194.
Turning to `CC(C)C[C@H](NC(=O)C1C[C@@H]2CCCC[C@@H]2N1C(=O)[C@@H]1CC=CC[C@H](N)C(=O)N[C@@H](CCCCN)C(=O)N[C@@H](CCCCN)C(=O)N1)C(=O)O` (stereo partly drawn) [compound 166, c[G(All)KKG(All)p (octahydroindol)L] (H-[AllylGly]KK[AllylGly][X1]L-OH; staple 1-4), the IC50 in experiment [1] was greater than 100 µM. Further, in experiment [2], the half-maximal inhibitory concentration (IC50) was 0.0333 µM and the Selectivity came to 3006.
With `CC(C)C[C@H](NC(=O)[C@@H](NC(=O)[C@@H]1CC=CC[C@H](N)C(=O)N[C@@H](CCCCN)C(=O)N[C@@H](CCCCN)C(=O)N1)C(c1ccccc1)c1ccccc1)C(=O)O` [compound 140, c[G(All)KKG(All)]A (diphenyl)L] (H-[AllylGly]KK[AllylGly][Dip]L-OH; staple 1-4), the IC50 in experiment [1] is greater than 100 µM; in experiment [2], 0.631 µM. Besides, in experiment [2], the Selectivity was 158.

Values taken from patent publication US12358948B2, “Neurotensinergic agonists and methods of using same preventing or treating pain” (priority 2019, dated 2025).
